The record followed here is ChEMBL document CHEMBL5625211, “Neutral sphingomyelinase 2 inhibitors based on the pyrazolo[1,5-a]pyrimidin-3-amine scaffold” (Eur J Med Chem, 2023).

Data set [1] is described as follows: Drug concentration in Wistar rat plasma at 10 mg/kg, po measured after 30 mins by LC-MS/MS method. Type of data set: ADME, organism-based.
Data set [2] is described as follows: Drug concentration in Wistar rat brain at 10 mg/kg, po measured after 30 mins by LC-MS/MS method. Type of data set: ADME, organism-based. Particulars: in vivo, 0.5 h; call rule not given here.

Structures are written as SMILES.

For `CN(C)c1cnn2ccc(N3CCOCC3)nc12`, in data set [1], the concentration at 0.5 h was greater than 2000 nM. For the same molecule, the Drug uptake entry in data set [2] was “Active”.
